Assays:
P. aeruginosa 1405 = experiment: MIC determination in Muller Hinton Agar (CLSI); type: cell-based, Pseudomonas aeruginosa; conditions: for MIC (mcg/ml) of carbapenem in presence of [A] at 4 mcg/ml: in presence of Compound A at 4 mcg/ml; for MIC (mcg/ml) of carbapenem in presence of [B] at 4 mcg/ml: in presence of Compound B at 4 mcg/ml;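 as to all read-outs here: MIC read as lowest concentration giving complete growth inhibition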
Experimental: (§1) The antibacterial activity of combinations according to the invention against resistant bacterial strains was investigated. Minimum Inhibitory Concentration (MIC) determination for the combinations according to invention was carried out in Muller Hinton Agar (MHA) (BD, USA) according to Clinical and Laboratory Standards Institute (CLSI) recommendations, (Clinical and Laboratory Standards Institute (CLSI), Performance Standards for Antimicrobial Susceptibility Testing, 20th Informational Supplement, M 100-S20, Volume 30, No. 1, 2010). In short, the test strains were adjusted to deliver about 10^4 CFU per spot with a multipoint inoculator (Applied Quality Services, UK). The plates were pored with MHA containing doubling concentration range of the test combinations according to invention. The plates were inoculated and were incubated at 35° C. for 18 hours.

P. aeruginosa 2779 = experiment: MIC determination in Muller Hinton Agar (CLSI); type: cell-based, Pseudomonas aeruginosa; conditions: for MIC (mcg/ml) of carbapenem in presence of [A] at 4 mcg/ml: in presence of Compound A at 4 mcg/ml; for MIC (mcg/ml) of carbapenem in presence of [B] at 4 mcg/ml: in presence of Compound B at 4 mcg/ml;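 as to all read-outs here: MIC read as lowest concentration giving complete growth inhibition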
Experimental: as §1

P. aeruginosa J 154 = experiment: MIC determination in Muller Hinton Agar (CLSI);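 as to MIC (mcg/ml) of carbapenem in presence of [A] at 4 mcg/ml: MIC read as lowest concentration giving complete growth inhibition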;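 as to MIC (mcg/ml) of carbapenem in presence of [B] at 4 mcg/ml: MIC read as lowest concentration giving complete growth inhibition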; type: cell-based, Pseudomonas aeruginosa; conditions: for MIC: Pseudomonas aeruginosa, J154, agent alone, P. aeruginosa J 154 [Reduced OprD]; for MIC (mcg/ml) of carbapenem in presence of [A] at 4 mcg/ml: in presence of Compound A at 4 mcg/ml; for MIC (mcg/ml) of carbapenem in presence of [A] at 4 mcg/ml / MIC (mcg/ml) of carbapenem in presence of [B] at 4 mcg/ml: P. aeruginosa J 154; for MIC (mcg/ml) of carbapenem in presence of [B] at 4 mcg/ml: in presence of Compound B at 4 mcg/ml
Experimental: as §1

P. aeruginosa R 70 = experiment: MIC determination in Muller Hinton Agar (CLSI); type: cell-based, Pseudomonas aeruginosa; conditions: for MIC: Pseudomonas aeruginosa, R70, 18 h, agent alone, P. aeruginosa R 70 [Reduced OprD + increased efflux]; for MIC (mcg/ml) of carbapenem in presence of [A] at 4 mcg/ml: in presence of Compound A at 4 mcg/ml; for MIC (mcg/ml) of carbapenem in presence of [A] at 4 mcg/ml / MIC (mcg/ml) of carbapenem in presence of [B] at 4 mcg/ml: P. aeruginosa R 70; for MIC (mcg/ml) of carbapenem in presence of [B] at 4 mcg/ml: in presence of Compound B at 4 mcg/ml
Experimental: as §1

[1] = test system: Pseudomonas aeruginosa 1405; experiment: Time kill study; type: cell-based; conditions: P. aeruginosa 1405; for Bacterial count (Log10 CFU/ml) 0 hour / Bacterial count (Log10 CFU/ml) 2 hour / Bacterial count (Log10 CFU/ml) 4 hour / Bacterial count (Log10 CFU/ml) 6 hour: single agent 4 mcg/ml
Experimental: (§2) The synergistic killing effect of the combinations according to invention was studied by performing time kill studies. In a typical time kill study, the freshly grown cultures were diluted to the required cell density (initial starting inoculum) in Cation adjusted Muller Hinton broth medium (BD, USA). The antibacterial agents (either alone or in combination) at the required concentrations were added into the culture-containing medium. The samples were incubated under shaking condition (120 rpm) at 37° C. Enumeration of viable bacterial count was done every 2 hour by diluting in normal saline and plating on to the Tryptic Soya Agar plates (BD, USA). The plates were incubated for 24 hours to arrive at the viable bacterial count. The results are expressed in terms of Log10 CFU per ml. In general, the decrease of 1 Log10 CFU/ml, corresponds to 90% killing of bacteria.

[2] = test system: Pseudomonas aeruginosa R70; experiment: Time kill study; type: cell-based; conditions: P. aeruginosa R70
Experimental: as §2

[3] = test system: highly resistant strains of Pseudomonas aeruginosa; experiment: MIC determination, all strains; type: cell-based; conditions: highly resistant strains of P. aeruginosa
Experimental: as §1
The results on antibacterial activity of a carbapenem antibacterial agent selected from imipenem, meropenem, ertapenem and doripenem alone and in combination with Compound A or Compound B, against highly resistant strains of Pseudomonas aeruginosa are given in Table 1. […] For example, P. aeruginosa 2779 harbors resistance due to increased AmpC expression (300 times) and increased efflux; P. aeruginosa 1405 harbors resistance due to increased AmpC expression (600 times), reduced OprD expression and increased efflux; P. aeruginosa R 70 harbors resistance due to reduced OprD expression and increased efflux; and P. aeruginosa J 154 harbors resistance due to reduced OprD.

MIC (mcg/ml) of carbapenem in presence of [A] at 4 mcg/ml (P. aeruginosa 1405) [µg/mL]	MIC (mcg/ml) of carbapenem in presence of [B] at 4 mcg/ml (P. aeruginosa 1405) [µg/mL]	MIC (mcg/ml) of carbapenem in presence of [A] at 4 mcg/ml (P. aeruginosa 2779) [µg/mL]	MIC (mcg/ml) of carbapenem in presence of [B] at 4 mcg/ml (P. aeruginosa 2779) [µg/mL]	MIC (P. aeruginosa J 154) [µg/mL]	MIC (mcg/ml) of carbapenem in presence of [A] at 4 mcg/ml (P. aeruginosa J 154) [µg/mL]	MIC (mcg/ml) of carbapenem in presence of [B] at 4 mcg/ml (P. aeruginosa J 154) [µg/mL]	MIC (P. aeruginosa R 70) [µg/mL]	MIC (mcg/ml) of carbapenem in presence of [A] at 4 mcg/ml (P. aeruginosa R 70) [µg/mL]	MIC (mcg/ml) of carbapenem in presence of [B] at 4 mcg/ml (P. aeruginosa R 70) [µg/mL]	SMILES	Bacterial count (Log10 CFU/ml) 0 hour ([1]; Table 2) [Log10 CFU/ml]	Bacterial count (Log10 CFU/ml) 2 hour ([1]; Table 2) [Log10 CFU/ml]	Bacterial count (Log10 CFU/ml) 4 hour ([1]; Table 2) [Log10 CFU/ml]	Bacterial count (Log10 CFU/ml) 6 hour ([1]; Table 2) [Log10 CFU/ml]	Bacterial count (Log10 CFU/ml) 0 hour ([1]; Table 3) [Log10 CFU/ml]	Bacterial count (Log10 CFU/ml) 2 hour ([1]; Table 3) [Log10 CFU/ml]	Bacterial count (Log10 CFU/ml) 4 hour ([1]; Table 3) [Log10 CFU/ml]	Bacterial count (Log10 CFU/ml) 6 hour ([1]; Table 3) [Log10 CFU/ml]	other results
4	4	0.12	0.06	8	8	4	16	8	<0.12	C[C@@H](O)[C@H]1C(=O)N2C(C(=O)O)=C(S[C@@H]3CN[C@H](CNS(N)(=O)=O)C3)[C@H](C)[C@H]12 [Doripenem, doripenem]	6.84	6.17	5.90	6.60	6.81	6.17	5.90	6.60	effect on bacterial counts through out the duration of the study (in words) ([1]; when used alone): failed to reduce the bacterial counts; effect on bacterial counts through out the duration of the study (in words) ([2]; when used alone): failed to reduce the bacterial counts; Bacterial count (Log10 CFU/ml) 0 hour ([2]; Table 4, single agent 4 mcg/ml): 6.62 Log10 CFU/ml; Bacterial count (Log10 CFU/ml) 2 hour ([2]; Table 4, single agent 4 mcg/ml): 5.74 Log10 CFU/ml; Bacterial count (Log10 CFU/ml) 4 hour ([2]; Table 4, single agent 4 mcg/ml): 5.65 Log10 CFU/ml; Bacterial count (Log10 CFU/ml) 6 hour ([2]; Table 4, single agent 4 mcg/ml): 5.65 Log10 CFU/ml; Bacterial count (Log10 CFU/ml) 0 hour ([2]; Table 5, single agent 4 mcg/ml): 6.44 Log10 CFU/ml; Bacterial count (Log10 CFU/ml) 2 hour ([2]; Table 5, single agent 4 mcg/ml): 5.74 Log10 CFU/ml; Bacterial count (Log10 CFU/ml) 4 hours ([2]; Table 5, single agent 4 mcg/ml): 5.65 Log10 CFU/ml; Bacterial count (Log10 CFU/ml) 6 hour ([2]; Table 5, single agent 4 mcg/ml): 5.65 Log10 CFU/ml; MIC values (in words) ([3]; in presence of Compound A or Compound B): decreased significantly; MIC values (in words) ([3]; when used alone): higher MIC values
1	1	≤0.25	0.12	16	4	0.5	8	2	≤0.12	C[C@@H](O)[C@H]1C(=O)N2C(C(=O)O)=C(SCCN=CN)C[C@H]12 [Imipenem, imipenem]	6.84	6.39	7.04	8.16	6.81	6.4	7.78	7.93	Bacterial count (Log10 CFU/ml) 0 hour ([2]; Table 4, single agent 2 mcg/ml): 6.62 Log10 CFU/ml; Bacterial count (Log10 CFU/ml) 2 hour ([2]; Table 4, single agent 2 mcg/ml): 5.7 Log10 CFU/ml; Bacterial count (Log10 CFU/ml) 4 hour ([2]; Table 4, single agent 2 mcg/ml): 5.98 Log10 CFU/ml; Bacterial count (Log10 CFU/ml) 6 hour ([2]; Table 4, single agent 2 mcg/ml): 6.78 Log10 CFU/ml; Bacterial count (Log10 CFU/ml) 0 hour ([2]; Table 5, single agent 2 mcg/ml): 6.44 Log10 CFU/ml; Bacterial count (Log10 CFU/ml) 2 hour ([2]; Table 5, single agent 2 mcg/ml): 5.6 Log10 CFU/ml; Bacterial count (Log10 CFU/ml) 4 hours ([2]; Table 5, single agent 2 mcg/ml): 5.8 Log10 CFU/ml; Bacterial count (Log10 CFU/ml) 6 hour ([2]; Table 5, single agent 2 mcg/ml): 6.3 Log10 CFU/ml

From patent US20180104224A1, “PHARMACEUTICAL COMPOSITIONS COMPRISING ANTIBACTERIAL AGENTS” (priority 2014, published 2018)
